One data set can be described thus: in vitro. The note with it: human.
The next data set is described as follows: physchem. The note with it: buffer, pH 7.4.
Data set [1] is described as follows: Oral bioavailability in rat. The format is ADME, organism-based. The following applies: in vivo.
The nature of another data set: in vivo. The note with it: rat, iv.
Data set [2] can be described thus: Half life in iv dosed dog. The format is ADME, organism-based, Canis lupus familiaris. The note with it: in vivo.
Data set [3] is described as follows: Oral bioavailability in dog. The following applies: in vivo. The format is ADME, organism-based, Canis lupus familiaris.
In the next data set the test system is Hepatocyte. The data set can be described thus: Intrinsic clearance in rat hepatocytes measured per 10^6 cells. The format is ADME, cell-based.

Where only a bound is given, the exact number is not on record here.

On to `O=C(O)[C@H](Cc1cccc(C(F)(F)F)c1)N1CCC(CN2CCC(Oc3ccc(Cl)c(Cl)c3)CC2)CC1`, for which, in “in vitro” (liver microsomes), the microsomal CLint (commonly a measure of how fast metabolising enzymes remove a compound, apart from limits set by blood flow) came to 7 µL/min/mg.

For the compound `O=C(O)[C@H](Cc1ccc(F)cc1)N1CCC(CN2CCC(Oc3ccc(Cl)cc3)CC2)CC1`, the log distribution coefficient (logD) (as a rule, lipophilicity at a set pH, counting ionised and neutral species) in “physchem” worked out at 1.9.

With `Cc1cc(OC2CCN(CC3CCN([C@@](C)(Cc4ccc(F)cc4)C(=O)O)CC3)CC2)ccc1Cl`, the bioavailability – broadly, the share of a dose that reaches the circulation, judged against a reference dose that is usually intravenous – in data set [1] came to 84%. This compound also had a pH-dependent lipophilicity (logD) in “physchem” of 2.1.

As for `Cc1cc(F)ccc1OC1CCN(CC2CCN([C@@H](Cc3ccc(F)cc3)C(=O)O)CC2)CC1`, in the data set “in vitro” (liver microsomes), the intrinsic metabolic clearance (microsomal CLint) was less than 3 µL/min/mg.

Take `Cc1c(OC2CCN(CC3CCN([C@@](C)(Cc4ccc(F)cc4)C(=O)O)CC3)CC2)ccc(Cl)c1Cl`: the logD in the data set “physchem” came out at 3.

Compound `Cc1c(Cl)ccc(OC2CCN(CC3CCN([C@@H](Cc4ccc(F)cc4)C(=O)O)CC3)CC2)c1Cl` yielded a microsomal CLint in the data set “in vitro” (liver microsomes) of less than 3 µL/min/mg. The half-life (commonly how long it takes for the measured level to halve) in the data set “in vivo” was 0.8 h. The compound further displayed a pH-dependent lipophilicity (logD) in “physchem” of 3.2.

In turn, `Cc1ccc(C[C@@H](C(=O)O)N2CCC(CN3CCC(Oc4ccc(Cl)c(Cl)c4)CC3)CC2)cc1` gave a microsomal CLint in the data set “in vitro” (liver microsomes) of 14 µL/min/mg. For the same compound, the logD in “physchem” was determined as 3.

In the case of `O=C(O)[C@H](c1ccccc1)N1CCC(CN2CCC(Oc3ccc(Cl)c(Cl)c3)CC2)CC1`, the intrinsic metabolic clearance (CLint scaled) (commonly the rate of metabolic loss divided by the concentration) in “in vitro” (microsomes) was less than 3 mL/min/kg.

Turning to `Cc1cc(Cl)ccc1OC1CCN(CC2CCN([C@@](C)(Cc3ccc(F)cc3)C(=O)O)CC2)CC1`, the half-life in data set [2] was 12 h; in “in vivo” it was 8.7 h. In addition, the bioavailability in data set [1] stood at 52%; in data set [3], 83%. This compound also had a logD in “physchem” of 2.6.

The compound `COc1ccccc1C[C@@H](C(=O)O)N1CCC(CN2CCC(Oc3ccc(Cl)c(Cl)c3)CC2)CC1` gave an intrinsic clearance (microsomal CLint) in “in vitro” (liver microsomes) of 8 µL/min/mg. Moreover, the log distribution coefficient (logD) in the data set “physchem” worked out at 2.8.

In data set [1], `O=C(O)c1ccccc1N1CCC(CN2CCC(Oc3ccc(Cl)c(Cl)c3)CC2)CC1` came in with a bioavailability of 58%. The same compound had a half-life in “in vivo” of 4.1 h. The logD in “physchem” turned out to be 2.8.

In the data set “physchem”, `O=C(O)COc1cccc(N2CCC(CN3CCC(Oc4ccc(Cl)c(Cl)c4)CC3)CC2)c1` registered a log distribution coefficient (logD) of 2.

`O=C(O)c1cccnc1N1CCC(CN2CCC(Oc3ccc(Cl)c(Cl)c3)CC2)CC1` registered a logD in “physchem” of 1.7.

`O=C(O)c1ccc(N2CCC(CN3CCC(Oc4ccc(Cl)c(Cl)c4)CC3)CC2)cc1` displayed a log distribution coefficient (logD) in the data set “physchem” of 2.3.

In “physchem”, `O=C(O)c1cccc(N2CCC(CN3CCC(Oc4ccc(Cl)c(Cl)c4)CC3)CC2)c1` came in with a pH-dependent lipophilicity (logD) of 2.2.

For the compound `Cc1cccc(C[C@@H](C(=O)O)N2CCC(CN3CCC(Oc4ccc(Cl)c(Cl)c4)CC3)CC2)c1`, the intrinsic clearance (microsomal CLint) in “in vitro” (liver microsomes) was less than 6 µL/min/mg. The pH-dependent lipophilicity (logD) in the data set “physchem” is 2.8.

Consider `Cc1c(OC2CCN(CC3CCN([C@@H](Cc4ccc(F)cc4)C(=O)O)CC3)CC2)ccc(Cl)c1Cl`, for which the microsomal CLint in “in vitro” (liver microsomes) is less than 3 µL/min/mg. The half-life in the data set “in vivo” was 10 h. Further, in the data set with Hepatocyte, the CLH is less than 3 µL/min/1e6 cells. Also, in the data set “physchem”, the logD is 3.5.

In “in vitro” (liver microsomes), `O=C(O)[C@H](Cc1ccccc1)N1CCC(CN2CCC(Oc3ccc(Cl)c(Cl)c3)CC2)CC1` yielded an intrinsic metabolic clearance (microsomal CLint) of less than 3 µL/min/mg. In addition, the bioavailability in data set [1] was 62%. Further, the half-life in “in vivo” was 12 h. In “physchem”, this compound gave a log distribution coefficient (logD) of 2.5.

For the compound `Cc1cc(F)ccc1OC1CCN(CC2CCN([C@@](C)(Cc3ccc(F)cc3)C(=O)O)CC2)CC1`, the bioavailability in data set [1] worked out at 24%. This compound had a logD in the data set “physchem” of 2.

In “physchem”, `O=C(O)Cc1ccc(N2CCC(CN3CCC(Oc4ccc(Cl)c(Cl)c4)CC3)CC2)cc1` showed a logD of 1.8.

Take `Cc1c(OC2CCN(CC3CCN([C@@H](Cc4ccc(F)cc4)C(=O)O)CC3)CC2)ccc(C#N)c1Cl`: the microsomal CLint in “in vitro” (microsomes) came out at 6 µL/min/mg. Also, the log distribution coefficient (logD) in the data set “physchem” came to 2.2.

For the compound `O=C(O)C(c1ccccc1)N1CCCC(CN2CCC(Oc3ccc(Cl)c(Cl)c3)CC2)C1` (mixture of isomers), in the data set “in vitro” (liver microsomes), the intrinsic metabolic clearance (CLint scaled) was less than 3 mL/min/kg.

`O=C(O)[C@H](Cc1ccc(Cl)cc1)N1CCC(CN2CCC(Oc3ccc(Cl)c(Cl)c3)CC2)CC1` yielded an intrinsic metabolic clearance (microsomal CLint) in the data set “in vitro” (liver microsomes) of less than 3 µL/min/mg. Also, the logD in the data set “physchem” was 2.9.

For the compound `O=C(O)C(c1ccccc1)N1CCC(CN2CCC(Oc3ccc(Cl)c(Cl)c3)CC2)CC1` (racemic), in “in vitro” (microsomes), the CLint scaled is less than 3 mL/min/kg.

`O=C(O)[C@H](Cc1ccc(F)cc1)N1CCC(CN2CCC(Oc3ccc(Cl)c(Cl)c3)CC2)CC1`: the intrinsic metabolic clearance (microsomal CLint) in “in vitro” (liver microsomes) was 4 µL/min/mg. The compound further had a logD in “physchem” of 2.6.

For the compound `O=C(O)[C@@H](c1ccccc1)N1CCC(CN2CCC(Oc3ccc(Cl)c(Cl)c3)CC2)CC1`, the intrinsic metabolic clearance (CLint scaled) in “in vitro” (microsomes) was less than 3 mL/min/kg. For the same compound, in data set [1], the bioavailability came to 5%. In “in vivo”, the half-life is 4.8 h.

In “physchem”, `N#Cc1ccc(C[C@@H](C(=O)O)N2CCC(CN3CCC(Oc4ccc(Cl)c(Cl)c4)CC3)CC2)cc1` registered a log distribution coefficient (logD) of 2.2.

`O=C(O)C(c1ccccc1)N1CCC(N2CCC(Oc3ccc(Cl)c(Cl)c3)CC2)CC1` (racemic) came in with an intrinsic metabolic clearance (CLint scaled) in “in vitro” (liver microsomes) of 6 mL/min/kg. For the same compound, in data set [1], the bioavailability is 13%. This compound gave a half-life in the data set “in vivo” of 2.4 h.

In “physchem”, `O=C(O)c1ccc(CN2CCC(CN3CCC(Oc4ccc(Cl)c(Cl)c4)CC3)CC2)cc1` showed a log distribution coefficient (logD) of 1.1.

In “in vitro” (liver microsomes), `Cc1ccccc1C[C@@H](C(=O)O)N1CCC(CN2CCC(Oc3ccc(Cl)c(Cl)c3)CC2)CC1` displayed a microsomal CLint of less than 3 µL/min/mg. In addition, in “physchem”, the logD stood at 2.5.

In “in vitro” (liver microsomes), `N#Cc1cccc(C[C@@H](C(=O)O)N2CCC(CN3CCC(Oc4ccc(Cl)c(Cl)c4)CC3)CC2)c1` gave an intrinsic clearance (microsomal CLint) of less than 5 µL/min/mg. This compound also came in with a logD in “physchem” of 2.3.

For `O=C(O)C(c1ccccc1)N1CCO[C@H](CN2CCC(Oc3ccc(Cl)c(Cl)c3)CC2)C1` (mixture of isomers), in data set [1], the bioavailability was 36%.

Regarding `Cc1ccc(S(=O)(=O)NC(=O)N2CCC(N3CCC(Oc4ccc(Cl)c(Cl)c4)CC3)CC2)cc1`, the CLint scaled in “in vitro” (liver microsomes) was found to be 1 mL/min/kg. The compound also came in with a bioavailability in data set [1] of 30%. Further, the half-life in “in vivo” is 2.7 h.

`O=C(O)[C@H](Cc1ccccc1Cl)N1CCC(CN2CCC(Oc3ccc(Cl)c(Cl)c3)CC2)CC1` displayed a microsomal CLint in the data set “in vitro” (liver microsomes) of less than 5 µL/min/mg.

For the compound `O=C(O)COc1ccccc1N1CCC(CN2CCC(Oc3ccc(Cl)c(Cl)c3)CC2)CC1`, in the data set “physchem”, the logD came out at 2.

As for `N#Cc1ccccc1C[C@@H](C(=O)O)N1CCC(CN2CCC(Oc3ccc(Cl)c(Cl)c3)CC2)CC1`, the microsomal CLint in the data set “in vitro” (microsomes) came out at 6 µL/min/mg. For the same compound, in the data set “physchem”, the logD was determined as 2.1.

Compound `O=C(O)[C@H](Cc1ccccc1F)N1CCC(CN2CCC(Oc3ccc(Cl)c(Cl)c3)CC2)CC1` gave a logD in the data set “physchem” of 2.6.

In “physchem”, `O=C(O)[C@H](Cc1cccc(F)c1)N1CCC(CN2CCC(Oc3ccc(Cl)c(Cl)c3)CC2)CC1` had a pH-dependent lipophilicity (logD) of 2.7.

In “physchem”, `O=C(O)Cc1cccc(N2CCC(CN3CCC(Oc4ccc(Cl)c(Cl)c4)CC3)CC2)c1` displayed a log distribution coefficient (logD) of 1.6.

For `Cc1cc(Cl)ccc1OC1CCN(CC2CCN([C@@H](Cc3ccc(F)cc3)C(=O)O)CC2)CC1`, the logD in “physchem” stood at 2.5.

The compound `O=C(O)[C@@H](Cc1ccccc1)N1CCC(CN2CCC(Oc3ccc(Cl)c(Cl)c3)CC2)CC1` displayed a microsomal CLint in “in vitro” (liver microsomes) of less than 3 µL/min/mg. This compound also had a logD in the data set “physchem” of 2.5.
